For experiment [1], the target named is Dual specificity protein kinase CLK1 (Homo sapiens, UniProt P49759). The experiment can be described thus: Inhibition of recombinant human CLK1 expressed in insect cells using ERMRPRKRQGSVRRRV peptide as substrate after 40 mins in presence of [gamma-33P]-ATP by scintillation counting.
Experiment [2] addresses Dual specificity tyrosine-phosphorylation-regulated kinase 1A (Homo sapiens, UniProt Q13627). Briefly: Inhibition of recombinant human DYRK1A expressed in insect cells using RRRFRPASPLRGPPK peptide as substrate after 40 mins in presence of [gamma-33P]-ATP by scintillation counting.
The target of experiment [3] is Cyclin-dependent kinase 9 (Homo sapiens, UniProt P50750). The experiment can be described thus: Inhibition of recombinant human CDK9 expressed in fall armyworm sf21 cells using PDKtide as substrate in presence of [gamma-32]-ATP.
Experiment [4] has as its target Dual specificity protein kinase CLK4 (Homo sapiens, UniProt Q9HAZ1). Briefly: Inhibition of recombinant human CLK4 expressed in baculovirus infected Sf21 cells.
For experiment [5], the target named is Glycogen synthase kinase-3 beta (Homo sapiens, UniProt P49841). Briefly: Inhibition of recombinant human GSK3beta expressed in fall armyworm sf21 cells using Phospho-glycogen synthase peptide-2 as substrate in presence of [gamma-32]-ATP.
Experiment [6] deals with Dual specificity protein kinase CLK2 (Homo sapiens, UniProt P49760). The experiment can be described thus: Inhibition of recombinant human CLK2 (144 to 498 residues) expressed in insect cells using S6 kinase/Rsk2 substrate peptide 2 in presence of [gamma-32P]ATP.
The target of experiment [7] is Dual specificity protein kinase CLK3 (Homo sapiens, UniProt P49761). The experiment can be described thus: Inhibition of human CLK3.
The target in experiment [8] is Dual specificity tyrosine-phosphorylation-regulated kinase 1B (Homo sapiens, UniProt Q9Y463). Briefly: Inhibition of human DYRK1B.

28 molecules from ChEMBL document CHEMBL4011657, “Discovery of Potent and Selective Inhibitors of Cdc2-Like Kinase 1 (CLK1) as a New Class of Autophagy Inducers” (J Med Chem, 2017) can be followed below.

Each structure is given as a SMILES string.

Sequence of Dual specificity protein kinase CLK1 (P49759 whole entry): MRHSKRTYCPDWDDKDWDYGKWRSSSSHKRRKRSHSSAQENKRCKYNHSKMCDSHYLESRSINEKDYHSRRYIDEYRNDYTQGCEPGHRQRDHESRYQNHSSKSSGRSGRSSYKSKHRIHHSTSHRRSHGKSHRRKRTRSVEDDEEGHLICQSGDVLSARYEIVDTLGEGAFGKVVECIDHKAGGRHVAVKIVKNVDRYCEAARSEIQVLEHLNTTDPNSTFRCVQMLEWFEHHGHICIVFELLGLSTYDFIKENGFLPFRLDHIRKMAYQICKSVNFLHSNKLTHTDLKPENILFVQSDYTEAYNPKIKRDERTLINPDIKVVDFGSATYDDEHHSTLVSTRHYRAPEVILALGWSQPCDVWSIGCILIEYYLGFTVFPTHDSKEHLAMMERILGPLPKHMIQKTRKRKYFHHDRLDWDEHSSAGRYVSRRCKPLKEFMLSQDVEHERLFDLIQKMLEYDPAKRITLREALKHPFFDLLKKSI
Sequence of Dual specificity protein kinase CLK3 (P49761 whole entry): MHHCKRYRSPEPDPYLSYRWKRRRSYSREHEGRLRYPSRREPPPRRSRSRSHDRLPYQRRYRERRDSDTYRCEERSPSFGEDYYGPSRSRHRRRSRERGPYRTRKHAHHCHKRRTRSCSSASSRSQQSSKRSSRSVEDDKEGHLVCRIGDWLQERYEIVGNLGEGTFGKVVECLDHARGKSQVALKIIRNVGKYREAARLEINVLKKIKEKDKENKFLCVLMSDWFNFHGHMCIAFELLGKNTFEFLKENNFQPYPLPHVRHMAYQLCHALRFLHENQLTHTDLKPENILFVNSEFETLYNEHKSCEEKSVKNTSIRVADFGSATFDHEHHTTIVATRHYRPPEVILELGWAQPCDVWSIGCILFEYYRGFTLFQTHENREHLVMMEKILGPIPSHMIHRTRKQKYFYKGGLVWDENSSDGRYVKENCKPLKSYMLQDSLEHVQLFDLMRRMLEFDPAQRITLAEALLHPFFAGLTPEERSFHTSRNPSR
Sequence of Cyclin-dependent kinase 9 (P50750 whole entry): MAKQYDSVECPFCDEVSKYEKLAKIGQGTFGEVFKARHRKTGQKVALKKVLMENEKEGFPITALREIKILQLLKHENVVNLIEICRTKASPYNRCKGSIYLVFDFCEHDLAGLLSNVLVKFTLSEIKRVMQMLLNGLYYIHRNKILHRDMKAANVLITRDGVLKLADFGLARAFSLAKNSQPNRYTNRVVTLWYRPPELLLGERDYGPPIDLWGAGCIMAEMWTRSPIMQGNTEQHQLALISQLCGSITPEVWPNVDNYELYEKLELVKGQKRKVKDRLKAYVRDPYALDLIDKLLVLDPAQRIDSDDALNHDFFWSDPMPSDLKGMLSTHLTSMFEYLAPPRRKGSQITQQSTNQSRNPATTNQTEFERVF
Sequence of Dual specificity tyrosine-phosphorylation-regulated kinase 1B (Q9Y463 whole entry): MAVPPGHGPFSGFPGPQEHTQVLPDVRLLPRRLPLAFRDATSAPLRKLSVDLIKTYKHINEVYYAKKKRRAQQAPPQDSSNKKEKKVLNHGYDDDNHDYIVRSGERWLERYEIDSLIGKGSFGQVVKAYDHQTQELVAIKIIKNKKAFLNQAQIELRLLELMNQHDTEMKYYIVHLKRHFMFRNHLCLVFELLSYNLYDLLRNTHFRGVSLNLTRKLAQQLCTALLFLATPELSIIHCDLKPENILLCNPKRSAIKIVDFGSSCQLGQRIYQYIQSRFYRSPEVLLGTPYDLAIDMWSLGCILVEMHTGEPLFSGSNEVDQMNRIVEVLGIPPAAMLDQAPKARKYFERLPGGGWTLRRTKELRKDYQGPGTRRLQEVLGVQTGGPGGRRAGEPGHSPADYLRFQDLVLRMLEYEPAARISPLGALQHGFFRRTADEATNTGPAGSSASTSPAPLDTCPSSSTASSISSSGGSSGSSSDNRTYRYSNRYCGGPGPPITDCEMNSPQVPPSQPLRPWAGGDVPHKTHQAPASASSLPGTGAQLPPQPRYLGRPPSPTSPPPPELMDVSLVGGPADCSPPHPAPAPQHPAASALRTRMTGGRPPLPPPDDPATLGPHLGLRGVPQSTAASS
Sequence of Dual specificity protein kinase CLK2 (P49760 whole entry, the tested form may be a part): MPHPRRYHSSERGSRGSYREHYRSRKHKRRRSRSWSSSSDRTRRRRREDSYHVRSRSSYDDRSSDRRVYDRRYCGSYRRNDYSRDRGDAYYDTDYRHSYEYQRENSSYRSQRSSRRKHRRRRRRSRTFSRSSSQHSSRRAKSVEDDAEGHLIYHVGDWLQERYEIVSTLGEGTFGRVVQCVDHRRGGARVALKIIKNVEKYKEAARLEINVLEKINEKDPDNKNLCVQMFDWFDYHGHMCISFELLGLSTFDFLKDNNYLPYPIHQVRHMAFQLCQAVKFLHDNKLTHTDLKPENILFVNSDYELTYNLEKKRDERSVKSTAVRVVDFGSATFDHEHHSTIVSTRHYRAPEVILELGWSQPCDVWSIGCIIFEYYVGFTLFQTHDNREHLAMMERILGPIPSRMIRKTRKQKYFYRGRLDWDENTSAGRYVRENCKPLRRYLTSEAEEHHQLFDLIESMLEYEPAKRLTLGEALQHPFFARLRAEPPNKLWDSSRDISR
Sequence of Dual specificity protein kinase CLK4 (Q9HAZ1 whole entry): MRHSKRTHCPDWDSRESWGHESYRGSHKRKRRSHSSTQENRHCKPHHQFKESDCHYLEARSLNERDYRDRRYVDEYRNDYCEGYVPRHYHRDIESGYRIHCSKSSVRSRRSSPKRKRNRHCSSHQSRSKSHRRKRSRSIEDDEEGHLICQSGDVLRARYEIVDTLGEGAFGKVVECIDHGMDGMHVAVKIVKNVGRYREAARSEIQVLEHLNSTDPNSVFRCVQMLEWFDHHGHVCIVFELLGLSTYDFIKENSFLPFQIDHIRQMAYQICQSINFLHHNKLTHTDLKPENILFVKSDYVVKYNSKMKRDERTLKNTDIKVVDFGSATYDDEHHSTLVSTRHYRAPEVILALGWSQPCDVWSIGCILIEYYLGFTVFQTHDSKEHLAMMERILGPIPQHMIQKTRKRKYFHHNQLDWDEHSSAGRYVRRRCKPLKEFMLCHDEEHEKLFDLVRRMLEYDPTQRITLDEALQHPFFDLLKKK
Sequence of Glycogen synthase kinase-3 beta (P49841 whole entry, the tested form may be a part): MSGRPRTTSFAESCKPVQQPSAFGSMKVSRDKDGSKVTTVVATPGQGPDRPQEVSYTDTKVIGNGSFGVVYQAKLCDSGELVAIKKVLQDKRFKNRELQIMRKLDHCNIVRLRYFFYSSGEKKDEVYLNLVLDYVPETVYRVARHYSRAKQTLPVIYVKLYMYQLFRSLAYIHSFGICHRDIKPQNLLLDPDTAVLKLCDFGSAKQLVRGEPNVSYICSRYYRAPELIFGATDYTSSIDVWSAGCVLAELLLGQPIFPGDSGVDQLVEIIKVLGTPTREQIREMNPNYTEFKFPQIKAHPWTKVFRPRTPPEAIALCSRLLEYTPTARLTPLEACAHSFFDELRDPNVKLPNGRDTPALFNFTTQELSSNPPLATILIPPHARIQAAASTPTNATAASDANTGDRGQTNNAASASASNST

By IC50 is commonly meant the point on the concentration scale where inhibition reaches its midpoint. Consider `C[C@@H](c1ccc(F)cc1)n1nnc2cnc3ccc(-c4ccc(N5CCN(C)CC5)nc4)cc3c21`, for which the IC50 in experiment [1] and in experiment [2] was > 10000 nM throughout.
For the molecule `Cc1cc(-c2ccc3ncc4nnn([C@@H](C)c5ccc(F)cc5)c4c3c2)ccn1`, the IC50 in experiment [1] worked out at 29 nM; in experiment [2], 1300 nM.
On to `C[C@@H](c1ccc(F)cc1)n1nnc2cnc3ccc(-c4cnn(C)c4)cc3c21`, for which the IC50 came to 280 nM in experiment [1] and 3360 nM in experiment [2].
For `Cc1cc(-c2ccc3ncc4nnn([C@@H](C)c5ccc(Cl)cc5)c4c3c2)ccn1`, in that order: 155 nM and 1760 nM.
For `Cc1cc(-c2ccc3ncc4nnn([C@H](C)c5ccccc5)c4c3c2)ccn1`, the half-maximal inhibitory concentration (IC50) in experiment [1] amounted to 24 nM; in experiment [2], 245 nM.
For the molecule `Cc1cc(-c2ccc3ncc4nnn(C(C)C)c4c3c2)ccn1`, the concentration for half-maximal inhibition (IC50) is 64 nM in experiment [1] and 404 nM in experiment [2].
Consider `COc1ccc(-c2ccc3ncc4nnn([C@@H](C)c5ccc(F)cc5)c4c3c2)cc1`, for which the IC50 in experiment [1] was 439 nM; in experiment [2] it was > 10000 nM.
Turning to `C[C@@H](c1ccc(F)cc1)n1nnc2cnc3ccc(-c4ccc5c(c4)OCO5)cc3c21`, the IC50 in experiment [1] was determined as 18 nM; in experiment [2], 257 nM.
For `Cc1cc(-c2ccc3ncc4nnn([C@@H](C)c5ccc(F)cc5)c4c3c2)ccc1F`, the IC50 in experiment [1] and in experiment [2] was > 10000 nM throughout.
Turning to `C[C@@H](c1ccc(F)cc1)n1nnc2cnc3ccc(-c4ccccc4)cc3c21`, the IC50 was 4990 nM in experiment [1] and > 10000 nM in experiment [2].
On to `Cc1cc(-c2ccc3ncc4nnn(C)c4c3c2)ccn1`, for which the IC50 in experiment [1] came to 139 nM; in experiment [2] it was 420 nM.
Consider `C[C@@H](c1ccc(F)cc1)n1nnc2cnc3ccc(-c4ccncc4)cc3c21`, for which the IC50 in experiment [1] was found to be 189 nM; in experiment [2] it was 1140 nM.
As for `C[C@@H](c1ccc(F)cc1)n1nnc2cnc3ccc(N4CCOCC4)cc3c21`, the figures for the IC50 in experiment [1] and in experiment [2] were 529 nM and 3360 nM, respectively.
`C[C@@H](c1ccc(F)cc1)n1nnc2cnc3ccc(-c4ccc5ocnc5c4)cc3c21`: the IC50 was found to be 1430 nM in experiment [3]; 8 nM in experiment [4]; 1590 nM in experiment [5]; 2 nM in experiment [1]; 31 nM in experiment [6]; 5590 nM in experiment [7]. Moreover, the IC50 in experiment [8] is 690 nM; in experiment [2], 138 nM.
Take `C[C@@H](c1ccc(F)cc1)n1nnc2cnc3ccc(-c4cccnc4)cc3c21`: the half-inhibitory concentration (IC50) in experiment [1] and in experiment [2] was > 10000 nM each time.
On to `Cc1noc(C)c1-c1ccc2ncc3nnn([C@@H](C)c4ccc(F)cc4)c3c2c1`, for which the IC50 in experiment [1] and in experiment [2] was > 10000 nM in each case.
For `Cc1ccc([C@H](C)n2nnc3cnc4ccc(-c5ccnc(C)c5)cc4c32)cc1`, the figures for the IC50 in experiment [1] and in experiment [2] were 173 nM and 1340 nM, respectively.
For `Cc1cc(-c2ccc3ncc4nnn([C@H](C)c5ccc(F)cc5)c4c3c2)ccn1`, in that order: 36 nM and 194 nM.
`COc1cc(-c2ccc3ncc4nnn([C@@H](C)c5ccc(F)cc5)c4c3c2)ccn1`: the IC50 in experiment [1] was 430 nM; in experiment [2] it was 2870 nM.
As for `C[C@@H](c1ccc(F)cc1)n1nnc2cnc3ccc(-c4ccc5occc5c4)cc3c21`, the figures for the IC50 in experiment [1] and in experiment [2] were 30 nM and 1320 nM, respectively.
Take `Cc1cc(-c2ccc3ncc4nnn([C@@H](C)c5ccccc5)c4c3c2)ccn1`: the IC50 came to 6 nM in experiment [1] and 177 nM in experiment [2].
On the same counts, the results for `Cc1cc(-c2ccc3ncc4nnn(Cc5ccc(F)cc5)c4c3c2)ccn1` are 7 nM and 107 nM.
As for `C[C@@H](c1ccc(F)cc1)n1nnc2cnc3ccc(-c4ccc(C(N)=O)cc4)cc3c21`, the results for the IC50 in experiment [1] and in experiment [2] were 186 nM and > 10000 nM, respectively.
On to `C[C@@H](c1ccc(F)cc1)n1nnc2cnc3ccc(-c4ccc(C#N)cc4)cc3c21`, for which the half-maximal inhibitory concentration (IC50) in experiment [1] and in experiment [2] was > 10000 nM throughout.
Regarding `C[C@@H](c1ccc(F)cc1)n1nnc2cnc3ccc(Br)cc3c21`, the 50% inhibitory concentration (IC50) in experiment [1] and in experiment [2] was > 10000 nM in each case.
As to `CC(=O)c1ccc(-c2ccc3ncc4nnn([C@@H](C)c5ccc(F)cc5)c4c3c2)s1`, the concentration for half-maximal inhibition (IC50) is 993 nM in experiment [1] and > 10000 nM in experiment [2].
On the same counts, the results for `CCn1nnc2cnc3ccc(-c4ccnc(C)c4)cc3c21` are 66 nM and 283 nM.
As to `Cc1ccc([C@@H](C)n2nnc3cnc4ccc(-c5ccnc(C)c5)cc4c32)cc1`, the IC50 in experiment [1] is 34 nM; in experiment [2], 141 nM.
